Reference: ChEMBL document CHEMBL5356986, “Research status of indole-modified natural products” (RSC Med Chem, 2023)
Values after ≈ are worked out from the molar mass of the structure shown.

Assays:
MCF7 [1] = test: Antiproliferative activity against human MCF7 cells assessed as reduction in cell viability incubated for 120 hrs by MTT assay; assay type: functional, cell-based; conditions: MCF7, 120 h
HeLa [2] = test: Antiproliferative activity against human HeLa cells assessed as reduction in cell growth; assay type: functional, cell-based
MCF7 [3] = test: Antiproliferative activity against human MCF7 cells assessed as inhibition of cell growth after overnight incubation by MTT assay; assay type: functional, cell-based
HT-29 = test: Antiproliferative activity against human HT-29 cells assessed as inhibition of cell proliferation by MTT assay; assay type: functional, cell-based
HeLa [4] = test: Antiproliferative activity against human HeLa cells assessed as inhibition of cell growth incubated for 72 hrs by MTT assay; assay type: functional, cell-based
Alpha glucosidase = Alpha glucosidase (Homo sapiens, UniProt O43451+P10253+P14410+Q2M2H8); test: Inhibition of alpha glucosidase (unknown origin) measured after 60 mins; assay type: protein assay
CCRF-CEM = test: Growth inhibition of human CCRF-CEM cells; assay type: functional
RPMI-8226 = test: Growth inhibition of human RPMI-8226 cells; assay type: functional
MCF7 [5] = test: Cytotoxicity against human MCF7 cells assessed as reduction in cell viability by MTS assay; assay type: functional, cell-based
HCT-116 = test: Cytotoxicity against human HCT-116 cells assessed as reduction in cell viability by MTS assay; assay type: functional, cell-based
H4 = test: Antiproliferative activity against human H4 cells assessed as cell growth inhibition; assay type: functional, cell-based
Bel-7402 = test: Cytotoxicity against human Bel-7402 cells assessed as reduction in cell viability measured after 72 hrs by MTT assay; assay type: functional, cell-based; conditions: Bel-7402, 72 h
Staphylococcus aureus [6] = test: Antibacterial activity against Staphylococcus aureus […] assessed as reduction in microbial growth; assay type: functional
Acinetobacter baumannii = test: Antibacterial activity against Acinetobacter baumannii assessed as reduction in bacterial growth by broth microdilution method; assay type: functional
Staphylococcus aureus [7] = test: Antibacterial activity against methicillin-resistant Staphylococcus aureus assessed as reduction in microbial growth; assay type: functional
Enterococcus faecalis = test: Antibacterial activity against Enterococcus faecalis assessed as reduction in bacterial growth; assay type: functional
Staphylococcus aureus [8] = test: Antibacterial activity against Staphylococcus aureus ATCC 29213 assessed as reduction in microbial growth; assay type: functional
Escherichia coli [9] = test: Antibacterial activity against Escherichia coli assessed as reduction in bacterial growth by broth microdilution method; assay type: functional
HepG2 = test: Cytotoxicity against human HepG2 cells assessed as reduction in cell viability measured after 48 hrs by MTT colorimetric based assay; assay type: functional; conditions: HepG2, 48 h
SGC-7901 = test: Cytotoxicity against human SGC-7901 cells assessed as reduction in cell viability measured after 48 hrs by MTT colorimetric assay; assay type: functional, cell-based; conditions: SGC-7901, 48 h
[10] = Antioxidant activity assessed as DPPH radical scavenging activity; assay type: functional
A549 [11] = test: Antiproliferative activity against human A549 cells assessed as reduction in cell viability by MTT assay; assay type: functional, cell-based
MCF7 [12] = test: Cytotoxicity against human MCF7 cells assessed as reduction in cell viability after 48 hrs by SRB assay; assay type: functional, cell-based; conditions: MCF7, 48 h
[13] = system: Human immunodeficiency virus 1; test: Antiviral activity against HIV-1 harboring integrase L74M mutant; assay type: functional, organism-based
[14] = Antioxidant activity assessed as DPPH radical scavenging activity measured after 30 mins; assay type: functional
K562 = test: Antiproliferative activity against human K562 cells assessed as cell growth inhibition by MTT assay; assay type: functional, cell-based
Fusarium oxysporum = test: Antifungal activity against Fusarium oxysporum assessed as inhibition of fungal growth; assay type: functional
Staphylococcus aureus [15] = test: Antibacterial activity against Staphylococcus aureus assessed as reduction in microbial growth; assay type: functional
Candida albicans = test: Antibacterial activity against Candida albicans assessed as reduction in bacterial growth; assay type: functional
Aspergillus niger = test: […] against Aspergillus niger assessed as […] incubated for 24 hrs by agar disc diffusion assay; assay type: functional
Escherichia coli [16] = test: Antibacterial activity against Escherichia coli assessed as reduction in bacterial cell viability; assay type: functional
Bacillus subtilis = test: Antibacterial activity against Bacillus subtilis assessed as reduction in microbial growth; assay type: functional
Klebsiella pneumoniae = test: Antibacterial activity against Klebsiella pneumoniae assessed as reduction in bacterial growth by broth microdilution method; assay type: functional
A549 [17] = test: Antiproliferative activity against human A549 cells assessed as reduction in cell viability incubated for 48 hrs by MTT assay; assay type: functional, cell-based; conditions: A549, 48 h

With `COc1ccc2[nH]cc(C(=O)C(=O)N[C@H]3c4cc5c(cc4[C@@H](c4cc(OC)c(OC)c(OC)c4)[C@H]4C(=O)OC[C@@H]43)OCO5)c2c1` as the compound, how does the IC50 (MCF7 [1]) read?
The IC50 was 1960 nM.

What about the IC50 (HeLa [2]) of the same compound?
Its IC50 is 1960 nM.

For `CCOC(=O)c1[nH]c2ccc(OC)cc2c1/C=C/C(=O)c1cc(OC)c(OC)c(OC)c1`, which IC50 (MCF7 [3]) is on record?
Its IC50 is 460 nM.

And the IC50 (HT-29)?
The IC50 was 390 nM.

And the IC50 (HeLa [4])?
Its IC50 is 330 nM.

For `C=C(C)[C@@H]1CC[C@]2(C(=O)O)CC[C@]3(C)[C@H](CC[C@@H]4[C@@]5(C)Cc6c([nH]c7ccccc67)C(C)(C)[C@@H]5CC[C@]43C)[C@@H]12`, which IC50 (Alpha glucosidase) is on record?
The IC50 was 40 nM.

Which results are given for `C=C1C(=O)O[C@H]2[C@H]1CC1C(COC(=O)/C=C/c3c[nH]c4ccccc34)=CCC[C@@]3(C)O[C@@]123` (some centres not stated)?
GI50 (CCRF-CEM): 70 nM; GI50 (RPMI-8226): 30 nM

What does the source list for `C=C1CC[C@H]2[C@@](C)(Cc3c([nH]c4ccccc34)[C@@]2(C)COC(C)=O)[C@@H]1C/C=C1\C=COC1=O`?
IC50 (MCF7 [5]): 1850 nM; IC50 (HCT-116): 1220 nM

For `COC(=O)[C@]1(C)CC[C@]2(C)CC[C@]3(C)C4=CC(c5cn(C)c6cc(Cl)ccc56)=C5C(=CC(OC)C(OC)=C5C)[C@]4(C)CC[C@@]3(C)[C@@H]2C1` (some centres not stated), which IC50 (H4) is on record?
The IC50 was 2030 nM.

What about the IC50 (Bel-7402) of the same compound?
Its IC50 is 10 nM.

Which MIC (Staphylococcus aureus [6]) does the source give for `CCn1cc(C(=O)O)c(=O)c2cc(F)c(N3CCNCC3)cc21` [NORFLOXACIN] here?
Its MIC is 4 µg/mL.

And the MIC (Acinetobacter baumannii)?
The MIC was 2 µg/mL (≈ 6.26 µM).

What about the MIC (Staphylococcus aureus [7]) of the same compound?
Its MIC is 4 µg/mL.

And the MIC (Enterococcus faecalis)?
Its MIC is 4 µg/mL (≈ 12.5 µM).

And the MIC (Staphylococcus aureus [8])?
Its MIC is 2 µg/mL.

And the MIC (Escherichia coli [9])?
Its MIC is 2 µg/mL (≈ 6.26 µM).

Which IC50 (HepG2) does the source give for `C[C@H]1[C@H](C)CC[C@]2(C(=O)O)CC[C@]3(C)C(=CC[C@@H]4[C@@]5(C)CC[C@H](O)C(C)(C)[C@@H]5CC[C@]43C)[C@H]12` [URSOLIC ACID] here?
Its IC50 is > 20000 nM.

And the IC50 (SGC-7901)?
The IC50 was > 20000 nM.

Which results are given for `CCOC(=O)c1[nH]c2cc(OC)ccc2c1/C=C/C(=O)c1cc(OC)c(OC)c(OC)c1`?
IC50 (MCF7 [3]): 240 nM; IC50 (HT-29): 130 nM; IC50 (HeLa [4]): 840 nM

For `O=C1O[C@H]([C@@H](O)CO)C([O-])=C1O.[Na+]` [SODIUM ASCORBATE], which IC50 [10] is on record?
Its IC50 is 12800 nM.

Which results are given for `C[C@@H]1CC[C@H]2[C@@H](C)C(OC(=O)c3cc4ccccc4[nH]3)O[C@@H]3O[C@@]4(C)CC[C@@H]1[C@]32OO4` (some centres not stated)?
IC50 (A549 [11]): 12900 nM; IC50 (MCF7 [12]): 6780 nM

Which results are given for `CCOC(=O)c1[nH]c2ccccc2c1/C=C/C(=O)c1cc(OC)c(OC)c(OC)c1`?
IC50 (MCF7 [3]): 1800 nM; IC50 (HT-29): 440 nM; IC50 (HeLa [4]): 2100 nM

For `C=C(C)[C@@H]1CC[C@]2(C(=O)N3CCN(C(=O)/C=C/c4ccc5[nH]ccc5c4)CC3)CC[C@]3(C)[C@H](CC[C@@H]4[C@@]5(C)CC[C@H](OC(=O)CC(C)(C)C(=O)O)C(C)(C)[C@@H]5CC[C@]43C)[C@@H]12`, which IC50 [13] is on record?
Its IC50 is 50 nM.

Which IC50 (Bel-7402) does the source give for `COC(=O)[C@]1(C)CC[C@]2(C)CC[C@]3(C)C4=CC(c5c[nH]c6cc(C)ccc56)=C5C(=CC(OC)C(OC)=C5C)[C@]4(C)CC[C@@]3(C)[C@@H]2C1` (some centres not stated) here?
Its IC50 is 20 nM.

For `C=C(C)[C@@H]1CC[C@]2(C(=O)NCC(=O)O)CC[C@]3(C)[C@H](CC[C@@H]4[C@@]5(C)Cc6c([nH]c7ccccc67)C(C)(C)[C@@H]5CC[C@]43C)[C@@H]12`, which IC50 (Alpha glucosidase) is on record?
The IC50 was 1800 nM.

Which EC50 [14] does the source give for `O=C(/C=C/c1ccc(O)c(O)c1)NCCc1c[nH]c2ccc(O)cc12` [N-CAFFEOYLSEROTONIN] here?
Its EC50 is 8100 nM.

For `COc1cc([C@@H]2c3cc4c(cc3[C@H](OC(=O)c3ccc5cc[nH]c5c3)[C@H]3COC(=O)[C@H]23)OCO4)cc(OC)c1OC`, which IC50 (K562) is on record?
The IC50 was 100 nM.

For `C=C1C(=O)O[C@H]2[C@H]1CC1C(COC(=O)c3c[nH]c4ccccc34)=CCC[C@@]3(C)O[C@@]123` (some centres not stated), which GI50 (CCRF-CEM) is on record?
The GI50 was 50 nM.

What about the GI50 (RPMI-8226) of the same compound?
The GI50 was 40 nM.

Which results are given for `COC(=O)c1[nH]c2ccc(OC)cc2c1/C=C/C(=O)c1cc(OC)c(OC)c(OC)c1`?
IC50 (MCF7 [3]): 590 nM; IC50 (HT-29): 1000 nM; IC50 (HeLa [4]): 2400 nM

What does the source list for GENTAMICIN?
MIC (Fusarium oxysporum): 27 µg/mL; MIC (Staphylococcus aureus [15]): 26 µg/mL; MIC (Candida albicans): 28 µg/mL; MIC (Aspergillus niger): 27 µg/mL; MIC (Escherichia coli [16]): 26 µg/mL; MIC (Bacillus subtilis): 28 µg/mL; MIC (Klebsiella pneumoniae): 26 µg/mL

Which IC50 (A549 [17]) does the source give for `COc1ccc(OC)c(-c2nc(C(=O)N[C@H]3c4cc5c(cc4[C@@H](c4cc(OC)c(OC)c(OC)c4)[C@H]4C(=O)OC[C@@H]43)OCO5)cc3c2[nH]c2ccccc23)c1` here?
The IC50 was 1870 nM.
